Measured values published in ChEMBL document CHEMBL4033723, “Succinamide derivatives of melampomagnolide B and their anti-cancer activities” (2017).

Legend:
Assay type in all cases: functional
UACC-62 = experiment: Growth inhibition of human UACC62 cells after 48 hrs by sulforhodamine B assay; conditions: UACC-62, 48 h
HOP-92 = experiment: Growth inhibition of human HOP92 cells after 48 hrs by sulforhodamine B assay; conditions: HOP-92, 48 h
M14 = experiment: Growth inhibition of human M14 cells after 48 hrs by sulforhodamine B assay; conditions: M14, 48 h
786-0 = experiment: Growth inhibition of human 786-0 cells after 48 hrs by sulforhodamine B assay; conditions: 786-0, 48 h
TK-10 = experiment: Growth inhibition of human TK10 cells after 48 hrs by sulforhodamine B assay; conditions: TK-10, 48 h
ACHN = experiment: Growth inhibition of human ACHN cells after 48 hrs by sulforhodamine B assay
HCC 2998 = experiment: Growth inhibition of human HCC2998 cells after 48 hrs by sulforhodamine B assay; conditions: HCC 2998, 48 h
OVCAR-5 = experiment: Growth inhibition of human OVCAR5 cells after 48 hrs by sulforhodamine B assay; conditions: OVCAR-5, 48 h
MDA-MB-231 = experiment: Growth inhibition of human MDA-MB-231 cells after 48 hrs by sulforhodamine B assay; conditions: MDA-MB-231, 48 h
OVCAR-4 = experiment: Growth inhibition of human OVCAR4 cells after 48 hrs by sulforhodamine B assay; conditions: OVCAR-4, 48 h
[1] = Induction of apoptosis in human M9-ENL1 cells assessed as cell death after 24 hrs by Annexin V/PI or 7-AAD staining based flow cytometry; conditions: M9-ENL1, 24 h, read-out: LC50 (the source's name)
[2] = Potency index, ratio of compound effect to PTL effect for cytotoxicity against human M9-ENL1 cells
RPMI-8226 = experiment: Growth inhibition of human RPMI8226 cells after 48 hrs by sulforhodamine B assay; conditions: RPMI-8226, 48 h
UO-31 = experiment: Growth inhibition of human UO31 cells after 48 hrs by sulforhodamine B assay; conditions: UO-31, 48 h
CCRF-CEM = experiment: Growth inhibition of human CCRF-CEM cells after 48 hrs by sulforhodamine B assay
MCF7 = experiment: Growth inhibition of human MCF7 cells after 48 hrs by sulforhodamine B assay; conditions: MCF7, 48 h
SF-268 = experiment: Growth inhibition of human SF268 cells after 48 hrs by sulforhodamine B assay; conditions: SF-268, 48 h
HCT-15 = experiment: Growth inhibition of human HCT15 cells after 48 hrs by sulforhodamine B assay; conditions: HCT-15, 48 h
MDA-MB-435 = experiment: Growth inhibition of human MDA-MB-435 cells after 48 hrs by sulforhodamine B assay; conditions: MDA-MB-435, 48 h
Hs-578T = experiment: Growth inhibition of human Hs 578T cells after 48 hrs by sulforhodamine B assay
NCI/ADR-RES = experiment: Growth inhibition of human NCI-ADR-RES cells after 48 hrs by sulforhodamine B assay
NCI-H322M = experiment: Growth inhibition of human NCI-H322M cells after 48 hrs by sulforhodamine B assay
PC-3 = experiment: Growth inhibition of human PC3 cells after 48 hrs by sulforhodamine B assay; conditions: PC-3, 48 h
HL-60(TB) = experiment: Growth inhibition of human HL-60(TB) cells after 48 hrs by sulforhodamine B assay; conditions: HL-60, 48 h
NCI-H226 = experiment: Growth inhibition of human NCI-H226 cells after 48 hrs by sulforhodamine B assay; conditions: NCI-H226, 48 h
SK-MEL-5 = experiment: Growth inhibition of human SK-MEL-5 cells after 48 hrs by sulforhodamine B assay; conditions: SK-MEL-5, 48 h
UACC-257 = experiment: Growth inhibition of human UACC257 cells after 48 hrs by sulforhodamine B assay; conditions: UACC-257, 48 h
COLO 205 = experiment: Growth inhibition of human COLO205 cells after 48 hrs by sulforhodamine B assay; conditions: COLO 205, 48 h
MDA-MB-468 = experiment: Growth inhibition of human MDA-MB-468 cells after 48 hrs by sulforhodamine B assay; conditions: MDA-MB-468, 48 h
[3] = Growth inhibition of human M9-ENL1 cells after 24 hrs by trypan blue assay; conditions: M9-ENL1, 24 h
NCI-H23 = experiment: Growth inhibition of human NCI-H23 cells after 48 hrs by sulforhodamine B assay; conditions: NCI-H23, 48 h
A498 = experiment: Growth inhibition of human A498 cells after 48 hrs by sulforhodamine B assay; conditions: A498, 48 h
SR = experiment: Growth inhibition of human SR cells after 48 hrs by sulforhodamine B assay
NCI-H522 = experiment: Growth inhibition of human NCI-H522 cells after 48 hrs by sulforhodamine B assay; conditions: NCI-H522, 48 h
U-251 = experiment: Growth inhibition of human U251 cells after 48 hrs by sulforhodamine B assay; conditions: U-251, 48 h
BT-549 = experiment: Growth inhibition of human BT549 cells after 48 hrs by sulforhodamine B assay; conditions: BT-549, 48 h
HT-29 = experiment: Growth inhibition of human HT-29 cells after 48 hrs by sulforhodamine B assay; conditions: HT-29, 48 h
SK-MEL-2 = experiment: Growth inhibition of human SK-MEL-2 cells after 48 hrs by sulforhodamine B assay; conditions: SK-MEL-2, 48 h
MOLT-4 = experiment: Growth inhibition of human MOLT4 cells after 48 hrs by sulforhodamine B assay; conditions: MOLT-4, 48 h
Malme-3M = experiment: Growth inhibition of human MALME-3M cells after 48 hrs by sulforhodamine B assay
A549 = experiment: Growth inhibition of human A549/ATCC cells after 48 hrs by sulforhodamine B assay; conditions: A549, 48 h
K562 = experiment: Growth inhibition of human K562 cells after 48 hrs by sulforhodamine B assay; conditions: K562, 48 h
SN12C = experiment: Growth inhibition of human SN12C cells after 48 hrs by sulforhodamine B assay
SF-539 = experiment: Growth inhibition of human SF539 cells after 48 hrs by sulforhodamine B assay; conditions: SF-539, 48 h
OVCAR-3 = experiment: Growth inhibition of human OVCAR3 cells after 48 hrs by sulforhodamine B assay; conditions: OVCAR-3, 48 h
SNB-75 = experiment: Growth inhibition of human SNB75 cells after 48 hrs by sulforhodamine B assay; conditions: SNB-75, 48 h
SW-620 = experiment: Growth inhibition of human SW620 cells after 48 hrs by sulforhodamine B assay; conditions: SW-620, 48 h
NCI-H460 = experiment: Growth inhibition of human NCI-H460 cells after 48 hrs by sulforhodamine B assay; conditions: NCI-H460, 48 h
T47D = experiment: Growth inhibition of human T47D cells after 48 hrs by sulforhodamine B assay
SNB-19 = experiment: Growth inhibition of human SNB19 cells after 48 hrs by sulforhodamine B assay; conditions: SNB-19, 48 h
LOX IMVI = experiment: Growth inhibition of human LOXIMVI cells after 48 hrs by sulforhodamine B assay
SK-OV-3 = experiment: Growth inhibition of human SKOV3 cells after 48 hrs by sulforhodamine B assay; conditions: SK-OV-3, 48 h
DU-145 = experiment: Growth inhibition of human DU145 cells after 48 hrs by sulforhodamine B assay; conditions: DU-145, 48 h
OVCAR-8 = experiment: Growth inhibition of human OVCAR8 cells after 48 hrs by sulforhodamine B assay; conditions: OVCAR-8, 48 h
CAKI-1 = experiment: Growth inhibition of human Caki1 cells after 48 hrs by sulforhodamine B assay; conditions: CAKI-1, 48 h
SF-295 = experiment: Growth inhibition of human SF295 cells after 48 hrs by sulforhodamine B assay; conditions: SF-295, 48 h
KM12 = experiment: Growth inhibition of human KM12 cells after 48 hrs by sulforhodamine B assay; conditions: KM12, 48 h
RXF 393 = experiment: Growth inhibition of human RXF393 cells after 48 hrs by sulforhodamine B assay; conditions: RXF 393, 48 h
SK-MEL-28 = experiment: Growth inhibition of human SK-MEL-28 cells after 48 hrs by sulforhodamine B assay; conditions: SK-MEL-28, 48 h
HCT-116 = experiment: Growth inhibition of human HCT116 cells after 48 hrs by sulforhodamine B assay; conditions: HCT-116, 48 h

Compound: C=C1C(=O)O[C@H]2[C@H]1CC/C(COC(=O)CCC(=O)N1CCC(C)CC1)=C\CC[C@@]1(C)O[C@@H]21
- GI50 (UACC-62): 5.15 µM
- GI50 (HOP-92): 2.05 µM
- GI50 (M14): 3.44 µM
- GI50 (786-0): 6.64 µM
- GI50 (TK-10): 3.9 µM
- GI50 (ACHN): 2.64 µM
- GI50 (HCC 2998): 11.5 µM
- GI50 (OVCAR-5): 6.36 µM
- GI50 (MDA-MB-231): 7.13 µM
- GI50 (OVCAR-4): 2.64 µM
- CC50 [1]: 4.1 µM
- fold change (FC) [2]: 2
- GI50 (RPMI-8226): 4.74 µM
- GI50 (UO-31): 3.56 µM
- GI50 (CCRF-CEM): 1.4 µM
- GI50 (MCF7): 2.22 µM
- GI50 (SF-268): 13.2 µM
- GI50 (HCT-15): 1.7 µM
- GI50 (MDA-MB-435): 4.84 µM
- GI50 (Hs-578T): 20.4 µM
- GI50 (NCI/ADR-RES): 13.1 µM
- GI50 (NCI-H322M): 17.6 µM
- GI50 (PC-3): 13 µM
- GI50 (HL-60(TB)): 3.16 µM
- GI50 (NCI-H226): 3.51 µM
- GI50 (SK-MEL-5): 7.17 µM
- GI50 (UACC-257): 3.57 µM
- GI50 (COLO 205): 2.94 µM
- GI50 (MDA-MB-468): 1.06 µM
- GI50 [3]: 3.1 µM
- GI50 (NCI-H23): 5.24 µM
- GI50 (A498): 2.77 µM
- GI50 (SR): 2.72 µM
- GI50 (NCI-H522): 1.5 µM
- GI50 (U-251): 16.7 µM
- GI50 (BT-549): 1.82 µM
- GI50 (HT-29): 4.28 µM
- GI50 (SK-MEL-2): 13.1 µM
- GI50 (MOLT-4): 3.33 µM
- GI50 (Malme-3M): 2.95 µM
- GI50 (A549): 15.8 µM
- GI50 (K562): 3.06 µM
- GI50 (SN12C): 4.8 µM
- GI50 (SF-539): 2.35 µM
- GI50 (OVCAR-3): 4.32 µM
- GI50 (SNB-75): 11.2 µM
- GI50 (SW-620): 2.33 µM
- GI50 (NCI-H460): 16 µM
- GI50 (T47D): 5.45 µM
- GI50 (SNB-19): 14 µM
- GI50 (LOX IMVI): 2.95 µM
- GI50 (SK-OV-3): 26.8 µM
- GI50 (DU-145): 4.44 µM
- GI50 (OVCAR-8): 3.37 µM
- GI50 (CAKI-1): 2.83 µM
- GI50 (SF-295): 14.7 µM
- GI50 (KM12): 12.1 µM
- GI50 (RXF 393): 1.91 µM
- GI50 (SK-MEL-28): 3.1 µM
- GI50 (HCT-116): 1.69 µM
